Assay results taken from paper PMC7490372, “Structural bases of IMiD selectivity that emerges by 5-hydroxythalidomide” (Nature Communications, 2020).

Target: T1, cereblon (CRBN) (Homo sapiens, UniProt Q96SW2)
T1 construct: biotinylated CRBN (wheat cell-free); with SALL4
Assay: AlphaScreen-based ternary complex formation, dose-dependent, in cell-free translation mixtures

T1 sequence (Q96SW2 whole entry): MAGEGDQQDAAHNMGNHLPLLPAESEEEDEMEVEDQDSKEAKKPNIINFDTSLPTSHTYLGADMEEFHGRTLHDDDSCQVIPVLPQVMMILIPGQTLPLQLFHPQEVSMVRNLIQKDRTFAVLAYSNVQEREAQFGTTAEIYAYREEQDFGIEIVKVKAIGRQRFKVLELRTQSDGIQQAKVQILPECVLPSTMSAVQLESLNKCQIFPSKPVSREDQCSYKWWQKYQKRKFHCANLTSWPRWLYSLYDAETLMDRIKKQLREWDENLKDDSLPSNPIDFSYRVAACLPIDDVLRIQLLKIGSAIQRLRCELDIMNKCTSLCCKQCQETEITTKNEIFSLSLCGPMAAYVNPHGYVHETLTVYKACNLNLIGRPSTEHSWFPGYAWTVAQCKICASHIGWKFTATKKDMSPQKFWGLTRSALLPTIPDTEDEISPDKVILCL
T1 sequence (Q9UJQ4 whole entry partner): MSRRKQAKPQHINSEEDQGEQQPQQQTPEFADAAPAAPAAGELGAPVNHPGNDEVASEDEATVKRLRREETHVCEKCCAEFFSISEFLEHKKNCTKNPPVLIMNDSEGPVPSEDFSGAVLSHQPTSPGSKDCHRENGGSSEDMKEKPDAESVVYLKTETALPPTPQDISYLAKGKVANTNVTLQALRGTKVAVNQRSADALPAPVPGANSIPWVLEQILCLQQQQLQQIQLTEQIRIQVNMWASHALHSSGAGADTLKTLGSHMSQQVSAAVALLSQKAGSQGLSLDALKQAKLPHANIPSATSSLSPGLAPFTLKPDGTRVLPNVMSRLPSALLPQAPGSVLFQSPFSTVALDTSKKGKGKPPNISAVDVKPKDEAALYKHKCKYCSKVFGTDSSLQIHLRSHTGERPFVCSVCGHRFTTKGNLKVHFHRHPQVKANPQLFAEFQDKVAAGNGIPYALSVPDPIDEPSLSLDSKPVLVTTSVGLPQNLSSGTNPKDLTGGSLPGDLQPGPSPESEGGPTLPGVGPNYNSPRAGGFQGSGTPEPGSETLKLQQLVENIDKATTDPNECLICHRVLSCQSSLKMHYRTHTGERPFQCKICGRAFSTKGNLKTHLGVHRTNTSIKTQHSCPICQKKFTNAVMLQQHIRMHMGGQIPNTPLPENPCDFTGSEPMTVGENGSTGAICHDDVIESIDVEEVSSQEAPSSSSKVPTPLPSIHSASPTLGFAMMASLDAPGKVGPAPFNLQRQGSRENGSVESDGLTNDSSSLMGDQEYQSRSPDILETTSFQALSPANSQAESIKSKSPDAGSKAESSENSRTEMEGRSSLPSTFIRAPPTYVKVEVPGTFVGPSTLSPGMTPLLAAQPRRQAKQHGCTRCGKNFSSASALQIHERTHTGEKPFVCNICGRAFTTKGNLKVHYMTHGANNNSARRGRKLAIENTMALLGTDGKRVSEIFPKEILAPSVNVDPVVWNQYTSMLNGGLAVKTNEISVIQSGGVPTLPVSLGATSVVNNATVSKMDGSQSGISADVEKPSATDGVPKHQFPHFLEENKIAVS

Q: With Nc1c(O)ccc2c1C(=O)N(C1CCC(=O)NC1=O)C2=O (stereo not shown) [5HP, 5-hydroxypomalidomide] as the molecule, how does the “AlphaScreen-based ternary complex formation, dose-dependent, in cell-free transl” value read?
A: The value was “Dose-dependent interaction of CRBN with SALL4 (left) and IKZF1 (right), as observed with the titration of racemate, Pom, and 5HP”.
